In brackets after ≈: the same amount, converted by molar mass.
Columns and labels:
HT-29 = assay: Cytotoxicity against human HT-29 cells after 7 days by MTT assay; assay type: functional; conditions: HT-29, 168 h, read-out: ED50 (the source's name)
[1] = Toxicity against brine shrimp; assay type: organism-based; conditions: artemia, in vivo
MCF7 = assay: Cytotoxicity against human MCF7 cells after 7 days by MTT assay; assay type: functional; conditions: MCF7, 168 h, read-out: ED50 (the source's name)
A549 = assay: Cytotoxicity against human A549 cells after 7 days by MTT assay; assay type: functional; conditions: A549, 168 h, read-out: ED50 (the source's name)

| Structure (SMILES) | EC50 (HT-29) [µg/mL] | LC50 [1] [µg/mL] | EC50 (MCF7) [µg/mL] | EC50 (A549) [µg/mL] |
| --- | --- | --- | --- | --- |
| CCCCCCCCCCCC[C@H](O)[C@H]1CC[C@H]([C@H](O)CC[C@H]2C[C@@H](CCCCC[C@@H](O)CC3=C[C@H](C)OC3=O)OC(C)(C)O2)O1 | > 1 | 0.266 (≈ 0.407 µM) | 0.878 (≈ 1.34 µM) | 0.00718 (≈ 0.011 µM) |
| CCCCCCCCCCCC[C@@H](O)[C@H]1CC[C@H]([C@H](O)CC[C@H]2C[C@@H](CCCCC[C@@H](O)CC3=C[C@H](C)OC3=O)OC(C)(C)O2)O1 | 0.508 (≈ 0.778 µM) | 0.206 (≈ 0.315 µM) | 0.165 (≈ 0.253 µM) | 0.00367 (≈ 0.00562 µM) |
| COc1cccc2c1C(=O)c1c(O)c3c(c(O)c1C2=O)C[C@@](O)(C(=O)CO)C[C@@H]3O[C@H]1C[C@H](N)[C@H](O)[C@H](C)O1 [DOXORUBICIN] | – | – | 0.142 (≈ 0.261 µM) | 0.00356 (≈ 0.00655 µM) |
| CCCCCCCCCCCC[C@@H](O)[C@H]1CC[C@H]([C@H](O)CC[C@H](O)C[C@H](O)CCCCC[C@@H](O)CC2=C[C@H](C)OC2=O)O1 [MURICATOCIN A] | 1.56 (≈ 2.55 µM) | 0.699 (≈ 1.14 µM) | 0.123 (≈ 0.201 µM) | 0.0755 (≈ 0.123 µM) |
| CCCCCCCCCCCC[C@H](O)[C@H]1CC[C@H]([C@H](O)CC[C@H](O)C[C@H](O)CCCCC[C@@H](O)CC2=C[C@H](C)OC2=O)O1 [MURICATOCIN B] | 1.66 (≈ 2.71 µM) | 0.557 (≈ 0.909 µM) | 0.103 (≈ 0.168 µM) | 0.334 (≈ 0.545 µM) |

Reference: ChEMBL document CHEMBL1159260, “Muricatocins A and B, two new bioactive monotetrahydrofuran Annonaceous acetogenins from the leaves of Annona muricata” (J Nat Prod, 1995)
